Columns and labels:
[1] = target: T1, wildtype Kras / hSOS1 (Homo sapiens, UniProt P01116); test: HTRF assay, wildtype Kras / SOS1 interaction; type: binding; conditions: compound nos. 401-703; read-out: IC50 against wildtype Kras
T1 construct: made in house; host or cells: E. coli BL21 (DE3)
Method in brief: (§1)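 Compounds, in duplicate at six concentrations from 10 μM to 0.01 μM, are added to GST-K-Ras premixed with anti-GST-Eu(K), then His-hSOS1 with anti-6His-XL665. After roughly 10 min, FRET is measured and the emission ratio is used to derive IC50.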

[2] = target: GST-tagged K-Ras mutant / His-tagged hSOS1 (Homo sapiens, UniProt P01116); test: HTRF assay, K-Ras mutant / SOS1 interaction; type: binding; conditions: compound nos. 401-703; read-out: IC50 against mutant Kras
Method in brief: as §1

T1 sequence (P01116 1-188 isoform P01116-2): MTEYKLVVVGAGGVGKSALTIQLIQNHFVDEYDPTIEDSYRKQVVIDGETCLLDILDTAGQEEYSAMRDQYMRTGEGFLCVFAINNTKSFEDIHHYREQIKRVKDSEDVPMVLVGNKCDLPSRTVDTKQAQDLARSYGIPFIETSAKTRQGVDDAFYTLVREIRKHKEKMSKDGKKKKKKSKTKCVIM
Sequence of GST-tagged K-Ras mutant / His-tagged hSOS1 (P01116 whole entry G12D, form open): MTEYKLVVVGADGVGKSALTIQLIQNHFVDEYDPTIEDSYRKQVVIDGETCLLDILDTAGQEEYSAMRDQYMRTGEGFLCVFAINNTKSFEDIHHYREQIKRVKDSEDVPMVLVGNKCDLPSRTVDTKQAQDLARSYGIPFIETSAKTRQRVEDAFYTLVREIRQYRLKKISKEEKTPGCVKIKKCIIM

Question: Which IC50 [1] does the source give for `CNCCN1CCCN(c2nc(OCC34CCCN3CCC4)nc3c(F)c(-c4ccc(F)c5sc(N)nc45)c(Cl)cc23)CC1` [Compound 575, 4-(6-chloro-8-fluoro-4-(4-(2-(methylamino)ethyl)-1,4-diazepan-1-yl)-2-((tetra-hydro-1H-pyrrolizin-7a(5H)-yl)methoxy)quinazolin-7-yl)-7-fluorobenzo[d]thiazol-2-amine] here?
Answer: Its IC50 is > 500 nM.

Question: And the IC50 [2]?
Answer: The IC50 was < 500 nM.

Question: Which IC50 [1] does the source give for `Nc1nc2c(-c3c(Cl)cc4c(N5CCN(S(=O)(=O)C6CC6)CC(F)(F)C5)nc(OC[C@@]56CCCN5C[C@H](F)C6)nc4c3F)ccc(F)c2s1` [Compound 576] here?
Answer: The IC50 was > 500 nM.

Question: What about the IC50 [2] of the same molecule?
Answer: The IC50 was < 500 nM.

Question: Which results are given for `Nc1nc2c(-c3c(Cl)cc4c(N5CC6CCC(C5)N6)nc(OCC56CCCN5CCC6)nc4c3F)c(F)ccc2s1` [Compound 578, 4-(4-(3,8-diazabicyclo-[3.2.1]octan-3-yl)-6-chloro-8-fluoro-2-((tetrahydro-1H-pyrrolizin-7a(5H)-l)meth-oxy)quinazolin-7-yl)-5-fluorobenzo[d]thiazol-2-amine]?
Answer: IC50 [1]: > 500 nM; IC50 [2]: < 500 nM

Question: Which results are given for `Fc1c(-c2cccc3sccc23)c(Cl)cc2c(N3CC4CCC(C3)N4)nc(OC[C@@]34CCCN3C[C@H](F)C4)nc12` [Compound 579, 7-(benzo[b]thiophen-4-yl)-4-(3,8-diazabicyclo[3.2.1]-octan-3-yl)-6-chloro-8-fluoro-2-(((2R,7aS)-2-fluorotetrahydro-1H-pyrrol-izin-7a(5H)-yl)methoxy)-quinazoline]?
Answer: IC50 [1]: > 500 nM; IC50 [2]: > 500 nM

Question: For `Fc1c(N2CCCc3ccccc32)ccc2c(N3CCCCCC3)nc(OCC34CCCN3CCC4)nc12` [Compound 580, 4-(azepan-1-yl)-7-(3,4-dihydroquinolin-1(2H)-yl)-8-fluoro-2-((tetrahydro-1H-pyrrolizin-7a(5H)-yl)meth-oxy)quinazoline], which IC50 [1] is on record?
Answer: Its IC50 is > 500 nM.

Question: And the IC50 [2]?
Answer: Its IC50 is > 500 nM.

Question: Which IC50 [1] does the source give for `CN1CCC[C@H]1COc1nc(N2CCCC(C(N)=O)CC2)c2cc(Cl)c(-c3cccc4sc(N)nc34)c(F)c2n1` (stereo partly drawn) [Compound 581, 1-(7-(2-aminobenzo[d]-thiazol-4-yl)-6-chloro-8-fluoro-2-(((S)-1-methyl-pyrrolidin-2-yl)methoxy)-quinazolin-4-yl)azepane-4-carboxamide] here?
Answer: The IC50 was > 500 nM.

Question: And the IC50 [2]?
Answer: The IC50 was < 500 nM.

Question: Which IC50 [1] does the source give for `N#Cc1c(N)sc2c(F)ccc(-c3c(Cl)cc4c(N5CC6CCC(C5)O6)nc(OC[C@@]56CCCN5C[C@H](F)C6)nc4c3F)c12` [Compound 583, 4-(4-(8-oxa-3-azabicyclo-[3.2.1]-octan-3-yl)-6-chloro-8-fluoro-2-(((2R,7aS)-2-fluorotetrahydro-1H-pyrrol-izin-7a(5H)-yl)methoxy)-quinazolin-7-yl)-2-amino-7-fluorobenzo[b]thiophene-3-carbonitrile] here?
Answer: The IC50 was > 500 nM.

Question: What about the IC50 [2] of the same molecule?
Answer: Its IC50 is < 500 nM.

Question: Which results are given for `Oc1ccc2c(c1)N(c1ccc3c(N4CCCCCC4)nc(OCC45CCCN4CCC5)nc3c1F)CCC2` [Compound 584, 1-(4-(azepan-1-yl)-8-fluoro-2-((tetrahydro-1H-pyrrol-izin-7a(5H)-yl)methoxy)-quinazolin-7-yl)-1,2,3,4-tetrahydroquinolin-7-ol]?
Answer: IC50 [1]: > 500 nM; IC50 [2]: > 500 nM

Question: How did the IC50 [1] turn out when `Nc1nc2c(-c3c(Cl)cc4c(N5CC6CCC(C5)N6)nc(OCC5(CN6CC[C@@H](F)C6)CC5)nc4c3F)ccc(F)c2s1` [Compound 586, 4-(4-(3,8-diazabicyclo-[3.2.1]octan-3-yl)-6-chloro-8-fluoro-2-((1-(((R)-3-fluoropyrrolidin-1-yl)meth-yl)cyclopropyl)methoxy)-quinazolin-7-yl)-7-fluoro-benzo[d]thiazol-2-amine] was run?
Answer: The IC50 was > 500 nM.

Question: And the IC50 [2]?
Answer: Its IC50 is < 500 nM.

Question: For `Nc1nc2c(-c3c(Cl)cc4c(N5CC6CCC(C5)N6)nc(OC[C@@]56CCCN5C[C@H](F)C6)nc4c3F)cccc2o1` [Compound 588, 4-(4-(3,8-diazabicyclo-[3.2.1]-octan-3-yl)-6-chloro-8-fluoro-2-(((2R,7aS)-2-fluorotetrahydro-1H-pyrrol-izin-7a(5H)-yl)methoxy)-quinazolin-7-yl)benzo[d]-oxazol-2-amine], which IC50 [1] is on record?
Answer: Its IC50 is > 500 nM.

Question: And the IC50 [2]?
Answer: Its IC50 is < 500 nM.

Question: `Nc1c(Cl)cccc1-c1c(Cl)cc2c(N3CC4CCC(C3)N4)nc(OCC34CCCN3CCC4)nc2c1F` [Compound 589, 2-(4-(3,8-diazabicyclo-[3.2.1]octan-3-yl)-6-chloro-8-fluoro-2-((tetrahydro-1H-pyrrolizin-7a(5H)-yl)meth-oxy)quinazolin-7-yl)-6-chloroaniline] was tested. Which IC50 [1] did it give?
Answer: Its IC50 is > 500 nM.

Question: What about the IC50 [2] of the same molecule?
Answer: Its IC50 is > 500 nM.

Question: What does the source list for `Nc1nc2c(-c3cc4nc(OCC56CCCN5CCC6)nc(N5CC6CCC(C5)N6)c4cc3Cl)ccc(F)c2s1` [Compound 591, 4-(4-(3,8-diazabicyclo-[3.2.1]octan-3-yl)-6-chloro-2-((tetrahydro-1H-pyrrol-izin-7a(5H)-yl)methoxy)-quinazolin-7-yl)-7-fluoro-benzo[d]thiazol-2-amine]?
Answer: IC50 [1]: > 500 nM; IC50 [2]: < 500 nM

Question: What does the source list for `N#Cc1c(N)sc2c(F)ccc(-c3c(Cl)cc4c(N5CCCC6(CCNC6)C5)nc(OC[C@@]56CCCN5C[C@H](F)C6)nc4c3F)c12` (stereo partly drawn) [Compound 592, 2-amino-4-(6-chloro-8-fluoro-2-(((2R,7aS)-2-fluorotetrahydro-1H-pyrrol-izin-7a(5H)-yl)methoxy)-4-(2,7-diazaspiro[4.5]decan-7-yl)quinazolin-7-yl)-7-fluorobenzo[b]thiophene-3-carbonitrile]?
Answer: IC50 [1]: > 500 nM; IC50 [2]: < 500 nM

Question: How did the IC50 [1] turn out when `CN1CCC[C@H]1COc1nc(N2CCCC(Cl)CC2)c2cc(Cl)c(-c3cccc4sc(N)nc34)c(F)c2n1` (stereo partly drawn) [Compound 593, 4-(6-chloro-4-(4-chloro-azepan-1-yl)-8-fluoro-2-(((S)-1-methylpyrrolidin-2-yl)methoxy)quinazolin-7-yl)benzo[d]thiazol-2-amine] was run?
Answer: Its IC50 is > 500 nM.

Question: And the IC50 [2]?
Answer: Its IC50 is < 500 nM.

Question: How did the IC50 [1] turn out when `CNCCCN1[C@@H]2CC[C@H]1CN(c1nc(OCC34CCCN3CCC4)nc3c(F)c(-c4ccc(F)c5sc(N)nc45)c(Cl)cc13)C2` [Compound 594, 4-(6-chloro-8-fluoro-4-((1R,5S)-8-(3-(methyl-amino)propyl)-3,8-diaza-bicyclo[3.2.1]octan-3-yl)-2-((tetrahydro-1H-pyrrol-izin-7a(5H)-yl)methoxy)-quinazolin-7-yl)-7-fluoro-benzo[d]thiazol-2-amine] was run?
Answer: Its IC50 is > 500 nM.

Question: What about the IC50 [2] of the same molecule?
Answer: The IC50 was < 500 nM.

Question: Which results are given for `N#CCCc1cc2c(N3CC4CCC(C3)N4)nc(OC[C@@]34CCCN3C[C@H](F)C4)nc2c(F)c1-c1cc(O)cc2ccccc12` [Compound 595, 3-(4-(3,8-diazabicyclo-[3.2.1]octan-3-yl)-8-fluoro-2-(((2R,7aS)-2-fluorotetra-hydro-1H-pyrrolizin-7a(5H)-yl)methoxy)-7-(3-hydroxynaphthalen-1-yl)-quinazolin-6-yl)propane-nitrile]?
Answer: IC50 [1]: > 500 nM; IC50 [2]: < 500 nM

Question: Which IC50 [1] does the source give for `Nc1ccc2cccc(-c3ccc4c(N5CC6CCC(C5)N6)nc(OCC56CCCN5CCC6)nc4c3F)c2n1` [Compound 596, 8-(4-(3,8-diazabicyclo-[3.2.1]octan-3-yl)-8-fluoro-2-((tetrahydro-1H-pyrrol-izin-7a(5H)-yl)methoxy)-quinazolin-7-yl)quinolin-2-amine] here?
Answer: The IC50 was > 500 nM.

Question: What about the IC50 [2] of the same molecule?
Answer: The IC50 was > 500 nM.

Question: Which IC50 [1] does the source give for `Nc1ccc2cccc(-c3c(Cl)cc4c(N5CC6CCC(C5)N6)nc(OCC56CCCN5CCC6)nc4c3F)c2n1` [Compound 597, 8-(4-(3,8-diazabicyclo-[3.2.1]octan-3-yl)-6-chloro-8-fluoro-2-((tetrahydro-1H-pyrrolizin-7a(5H)-yl)meth-oxy)quinazolin-7-yl)quin-olin-2-amine] here?
Answer: The IC50 was > 500 nM.

Question: What about the IC50 [2] of the same molecule?
Answer: Its IC50 is > 500 nM.

Reference: patent publication US20240254129A1, “HETEROCYCLIC COMPOUNDS AND USES THEREOF” (Kumquat Biosciences Inc., priority 2021, published 2024)
